The test system of one series is HBV rtL180M. The series can be described thus: intracellular HBV DNA replication assay, rtL180M mutant. In kind it is cell-based, Hepatitis B virus. The protocol:
(§1) Drug susceptibility assays were performed as previously described. Cytotoxicity assays in PBM, CEM and Vero cells were conducted as previously described. Two compounds were used for testing, the first, an adenine nucleoside analog which contained hydroxyl groups at R^1 and R^1a on the sugar portion of the molecule (compound 15/18) and the second, a prodrug nucleoside based upon compound 15/18 which contained a phosphoamidate group on R^1 (R^1a was H) containing a phenyl group as R^6 and B′ was an amino acid group derived from alanine, where R^8 was methyl and R″ was a methyl group, forming a methyl ester. These compounds were tested in a standard HBV assay in the laboratory of Dr. Brent Korba.

The subject of the next series is wild-type HBV. The series can be described thus: intracellular HBV DNA replication assay, wild-type HBV. In kind it is cell-based, Hepatitis B virus. The protocol:
as §1

A further series has as its system HBV. Put plainly: standard HBV assay (laboratory of Dr. Brent Korba). In kind it is cell-based, Hepatitis B virus. As for the experimental part:
as §1

In another series the test system is HBV rtA181T and rtN236T. The following applies: cited from earlier work.
The subject of series [1] is HBV double mutant rtL180M/rtM204V. Put plainly: intracellular HBV DNA replication assay, double mutant. The format is cell-based. The note with it: Hepatitis B virus. As for the experimental part:
as §1

The test system of series [2] is lamivudine-resistant mutants including rtM204V/I±rtL180M. The following applies: literature ref. 50; cited from earlier work.

Regarding `C=C1[C@@H](n2cnc3c(N)ncnc32)[C@@H](F)[C@H](O)[C@H]1CO` (hydrate or solvate) [Compound 15, (+)-(1R,2R,3R,5R)-3-(6-amino-9H-9-purinyl)-2-fluoro-5-(hydroxymethyl)-4-methylenecyclopentan-1-ol], the melting point was 215 to 218 °C (dec.).

For the compound `C=C1[C@@H](n2cnc3c(N)ncnc32)[C@@H](F)[C@H](O)[C@H]1CO` [Compound 15, (+)-(1R,2R,3R,5R)-3-(6-amino-9H-9-purinyl)-2-fluoro-5-(hydroxymethyl)-4-methylenecyclopentan-1-ol], the “fold increased antiviral activity in the EC90 value versus lamivudine” value in the series with HBV rtL180M came to 4.3 fold. Also, the “fold more potent than adefovir (EC90)” value in the series with wild-type HBV (wild-type HBV, EC90) came to 1.5 fold.

As for `C=C1C(COP(=O)(N[C@@H](C)C(=O)OC)Oc2ccccc2)C(O)C(F)C1n1cnc2c(N)ncnc21` (stereo partly drawn) [Test Number 2, 2′-Deoxy-2′-fluoro-3′-hydroxy-4′-(hydroxymethyl)-5′-methylene-carbocyclic Adenosine (2′-FMCA) Monophosphate prodrug], in the series on HBV, the “times more active than the compound where both R1 and R1a are H” value is reported as “more than 10 times”.

As to `Nc1ncnc2c1ncn2CCOCP(=O)(O)O` [adefovir], the “increase in median effective concentration” value in the series with HBV rtA181T and rtN236T is given as “two-fold to nine-fold”. For the same compound, the EC90 in the series on wild-type HBV (Hepatitis B virus, HBV-WT, concentration required to inhibit 90% of HBV DNA, read-out: EC90 against wild-type HBV) was found to be 7.1 µM; in series [1] (read-out: EC90 against double mutant rtL180M/rtM204V), 8.5 µM. In addition, the EC50 in series [1] (read-out: EC50 against double mutant rtL180M/rtM204V) amounted to 2.2 µM.

For `C=C1[C@H](CO)[C@@H](O)C[C@@H]1n1cnc2c(=O)[nH]c(N)nc21` [entecavir], the “fold loss of activity against lamivudine-resistant mutants” value in series [2] was 8 fold.

Values taken from patent publication US8946244B2, “2′-fluoro-6′methylene carbocyclic nucleosides and methods of treating viral infections” (University of Georgia Research Foundation, Inc., priority 2009, dated 2015).
